A word on the IC50: it is the midpoint of a concentration-inhibition curve.

This experiment deals with Bcl-2-related protein A1 (Mus musculus) (UniProt Q07440). The experiment is described as follows: Bfl-1 inhibitors blocking BH3 peptide binding, confirmation, biochemical, TR-FRET, mouse Bfl-1 (AID 621). The following applies: TR-FRET Bfl-1 BH3 peptide binding displacement. For orientation: Time-resolved FRET reads energy transfer from a long-lived donor to a nearby acceptor.

The structures appear in SMILES notation.

Chain of Bcl-2-related protein A1 (Mus musculus) (Q07440 whole entry, looked up): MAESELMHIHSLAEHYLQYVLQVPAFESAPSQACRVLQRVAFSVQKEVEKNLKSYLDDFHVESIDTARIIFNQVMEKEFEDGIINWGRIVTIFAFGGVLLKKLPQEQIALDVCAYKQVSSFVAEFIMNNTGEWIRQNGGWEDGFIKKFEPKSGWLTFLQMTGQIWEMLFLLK

Take `Nc1ccc2ncccc2c1N`: the IC50 was 3.49 µM.

For the compound `CCn1c(SCC(=O)O)nc2sc3c(c2c1=O)CCC3`, the IC50 was 14.5 µM.

Values taken from PubChem BioAssay AID621 (Sanford-Burnham Center for Chemical Genomics, 2007).
